Assay results reported in paper PMC3963952, “The 2.1 Å Resolution Structure of Cyanopindolol-Bound β1-Adrenoceptor Identifies an Intramembrane Na^+ Ion that Stabilises the Ligand-Free Receptor” (PLoS ONE, 2014).

Columns and labels:
[1] = target: neurotensin receptor (NTSR1); parameters: method as in PMID 23051748; settings: read-out: EC50 for the allosteric effect of Na+ on NTSR1; cited from earlier work
[2] = target: β1AR (Meleagris gallopavo, UniProt P07700)
Protocol: For the thermostability assay for the ligand-free receptor, 1–2.5 mg of E. coli-expressed membrane protein was solubilised for 30 min on ice with 1% DDM and insoluble material was removed by centrifugation (5 min, 20,000 g). Samples were then adjusted to give the desired concentration of NaCl or choline chloride. Thermostability was measured by incubating the sample at the specified temperature for 30 min; reactions were placed on ice, and ^3H-DHA was added (50 nM final concentration) and equilibrated (2 h, 4°C). Receptor-bound and free radioligand were separated by spin gel filtration assays as described previously. Nonspecific binding was determined in the presence of 1 mM alprenolol. Radioactivity was counted on a MicroBeta TriLux scintillation counter (Perkin Elmer), and data were analyzed by nonlinear regression using Prism software (GraphPad).
Figure 4 Thermostability of β1AR mutants.

[3] = tested on: A2AR; settings: cited from earlier work

β1AR, sequence (P07700 whole entry): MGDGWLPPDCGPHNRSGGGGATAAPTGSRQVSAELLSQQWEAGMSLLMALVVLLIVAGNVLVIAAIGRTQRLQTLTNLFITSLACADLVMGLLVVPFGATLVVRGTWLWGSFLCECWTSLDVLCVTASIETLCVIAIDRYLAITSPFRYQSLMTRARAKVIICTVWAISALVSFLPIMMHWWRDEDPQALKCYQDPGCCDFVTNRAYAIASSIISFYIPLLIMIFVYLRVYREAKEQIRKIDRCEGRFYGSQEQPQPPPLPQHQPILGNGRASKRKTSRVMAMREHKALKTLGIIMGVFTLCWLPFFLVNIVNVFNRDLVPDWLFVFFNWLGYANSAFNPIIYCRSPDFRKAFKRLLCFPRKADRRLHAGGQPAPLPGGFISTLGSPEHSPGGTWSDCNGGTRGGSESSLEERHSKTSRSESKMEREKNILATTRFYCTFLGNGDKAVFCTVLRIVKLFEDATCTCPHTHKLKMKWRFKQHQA

Row | Structure (SMILES) | EC50 [1] | decrease of β1AR thermostability in the absence of Na+ ([2]; ligand-free β1AR, 150 mM NaCl versus 150 mM choline chloride) | EC50 ([3]; also calculated from data in ref 21, read-out: EC50 for the allosteric effect of Na+ on A2AR) | Kd ([3]; no reference given, read-out: KD of Na+ binding to A2AR) | apparent Tm of dodecylmaltoside-solubilised ligand-free β1AR ([2]; in 150 mM of the named salt, heated 30 min, ±SEM)
1 | [Cl-].[Na+] [Na^+] | 43 mM | 7.5 °C | 40 to 48 mM | 40 to 50 mM | –
2 | C[N+](C)(C)CCO.[Cl-] [choline chloride] | – | – | – | – | 19.1±0.6 °C
